Counter-ions that a name gives are not always drawn.
Molecular target: TrkA (Homo sapiens, UniProt P04629)
Test: TrkA LanthaScreen Eu Kinase Binding Assay
Parameters: 6HIS tagged cytoplasmic domain from Invitrogen, Catalog No. PV3144; purchased Invitrogen PV3144
Settings: averaged IC50; TR-FRET binding assay; read-out: TrkA Enzyme IC50
Experimental: TrkA binding activity was determined in a TrkA LanthaScreen™ Eu Kinase Binding Assay. 5 nM His-tagged recombinant human TrkA (6HIS tagged cytoplasmic domain from Invitrogen, Catalog No. PV3144) was incubated with 4 nM Alexa-Fluor® Tracer 236 (Invitrogen Cat. No. PV5592), 2 nM biotinylated anti-His (Invitrogen Cat. No. PV6090), and 2 nM europium-labeled Streptavidin (Invitrogen Cat. No. PV5899), in buffer (25 mM MOPS, pH 7.5, 5 mM MgCl2, 0.005% Triton X-100). Three fold serial dilutions of compounds of the invention in DMSO were added to a final percentage of 2% DMSO. After 60-minute incubation at 22° C., the reaction was measured using the EnVision mutlimode plate reader (PerkinElmer) via TR-FRET dual wavelength detection at […]. The percent of control was calculated using a ratiometric emission factor. The IC50 values were determined by fitting a four parameter model to the percent of control data.
Table A provides averaged IC50 values for compounds of the invention when tested in the assay of Example A, where A represents an averaged IC50 value<100 nM; B represents an averaged IC50 value from 100 to 1,000 nM; and C represents an averaged IC50 value from 1,000 to 10,000 nM.

Chain of TrkA (P04629 440-796 limits assumed): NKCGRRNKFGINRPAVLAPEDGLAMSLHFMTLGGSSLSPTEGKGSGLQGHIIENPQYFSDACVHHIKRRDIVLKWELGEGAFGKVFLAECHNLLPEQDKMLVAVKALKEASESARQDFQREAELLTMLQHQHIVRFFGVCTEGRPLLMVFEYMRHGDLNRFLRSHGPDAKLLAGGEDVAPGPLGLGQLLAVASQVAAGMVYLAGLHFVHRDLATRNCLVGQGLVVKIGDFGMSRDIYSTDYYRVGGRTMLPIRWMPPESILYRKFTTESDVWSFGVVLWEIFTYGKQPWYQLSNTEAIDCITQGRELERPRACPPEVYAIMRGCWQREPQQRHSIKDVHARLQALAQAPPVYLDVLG

Structure (SMILES) | IC50
COCCCc1cc(Cl)c(Cl)cc1NC(=O)Nc1c(C)c(OCCN2CCN(C(=O)OC(C)(C)C)CC2)nn1-c1ccccc1 [Example 49, tert-butyl 4-(2-((5-(3-(4,5-dichloro-2-(3-methoxypropyl)phenyl)ureido)-4-methyl-1-phenyl-1H-pyrazol-3-yl)oxy)ethyl)piperazine-1-carboxylate] | < 100 nM
COCCCc1cc(Cl)c(Cl)cc1NC(=O)Nc1c(C)c(OCC2CN(C)C2)nn1-c1ccccc1 [Example 37, 1-(4,5-dichloro-2-(3-methoxypropyl)phenyl)-3-(4-methyl-3-((1-methylazetidin-3-yl)methoxy)-1-phenyl-1H-pyrazol-5-yl)urea] | < 100 nM
COCCOc1nc(C)c(Cl)cc1NC(=O)Nc1c(C)c(-c2cnn(C)c2)nn1-c1ccccc1 [Example 6, 1-(5-chloro-2-(2-methoxyethoxy)-6-methylpyridin-3-yl)-3-(1′,4-dimethyl-1-phenyl-1H,1′H-[3,4′-bipyrazol]-5-yl)urea] | < 100 nM
COCCCc1cc(Cl)c(Cl)cc1NC(=O)Nc1c(C)c(OCC2(F)CCNCC2)nn1-c1ccccc1 [Example 45, 1-(4,5-dichloro-2-(3-methoxypropyl)phenyl)-3-(3-((4-fluoropiperidin-4-yl)methoxy)-4-methyl-1-phenyl-1H-pyrazol-5-yl)urea hydrochloride] | < 100 nM
COCCOc1nc(C(F)(F)F)ccc1NC(=O)Nc1c(C)c(-c2cnn(C)c2)nn1-c1ccccc1 [Example 7, 1-(1′,4-dimethyl-1-phenyl-1H,1′H-[3,4′-bipyrazol]-5-yl)-3-(2-(2-methoxyethoxy)-6-(trifluoromethyl)pyridin-3-yl)urea] | 100 to 1000 nM
COCCOc1cc(Cl)ccc1NC(=O)Nc1c(C)c(-c2cnn(C)c2)nn1-c1ccccc1 [Example 11, 1-(4-chloro-2-(2-methoxyethoxy)phenyl)-3-(1′,4-dimethyl-1-phenyl-1H,1′H-[3,4′-bipyrazol]-5-yl)urea] | 100 to 1000 nM
COCCCc1cc(F)c(C(F)(F)F)cc1NC(=O)Nc1c(C)c(OC)nn1-c1ccccc1 [Example 48, 1-(4-fluoro-2-(3-methoxypropyl)-5-(trifluoromethyl)phenyl)-3-(3-methoxy-4-methyl-1-phenyl-1H-pyrazol-5-yl)urea] | < 100 nM
COCCCc1cc(Cl)c(Cl)cc1NC(=O)Nc1c(C)c(OC[C@H]2CN(C)CCO2)nn1-c1ccccc1 [Example 32, (R)-1-(4,5-dichloro-2-(3-methoxypropyl)phenyl)-3-(4-methyl-3-((4-methylmorpholin-2-yl)methoxy)-1-phenyl-1H-pyrazol-5-yl)urea] | < 100 nM
COCCCc1cc(Cl)c(Cl)cc1NC(=O)Nc1c(C)c(OC2CCN(C)CC2)nn1-c1ccccc1 [Example 30, 1-(4,5-dichloro-2-(3-methoxypropyl)phenyl)-3-(4-methyl-3-((1-methylpiperidin-4-yl)oxy)-1-phenyl-1H-pyrazol-5-yl)urea] | < 100 nM
COCCOc1ccc(C(F)(F)F)cc1NC(=O)Nc1c(C)c(-c2cnn(C)c2)nn1-c1ccccc1 [Example 2, 1-(1′,4-dimethyl-1-phenyl-1H,1′H-[3,4′-bipyrazol]-5-yl)-3-(2-(2-methoxyethoxy)-5-(trifluoromethyl)phenyl)urea] | < 100 nM
COCCCc1cc(F)c(C(F)(F)F)cc1NC(=O)Nc1c(C)c(-c2ccc(=O)n(C)c2)nn1-c1ccccc1 [Example 17, 1-(4-fluoro-2-(3-methoxypropyl)-5-(trifluoromethyl)phenyl)-3-(4-methyl-3-(1-methyl-6-oxo-1,6-dihydropyridin-3-yl)-1-phenyl-1H-pyrazol-5-yl)urea] | < 100 nM
COCCOc1ccc(Cl)cc1NC(=O)Nc1c(C)c(-c2cnn(C)c2)nn1-c1ccccc1 [Example 12, 1-(5-chloro-2-(2-methoxyethoxy)phenyl)-3-(1′,4-dimethyl-1-phenyl-1H,1′H-[3,4′-bipyrazol]-5-yl)urea] | < 100 nM
COCCCc1cc(F)c(C(F)(F)F)cc1NC(=O)Nc1c(C)c(OC[C@H](O)CO)nn1-c1ccccc1 [Example 22, (R)-1-(3-(2,3-dihydroxypropoxy)-4-methyl-1-phenyl-1H-pyrazol-5-yl)-3-(4-fluoro-2-(3-methoxypropyl)-5-(trifluoromethyl)phenyl)urea] | < 100 nM
COCCCc1cc(Cl)c(Cl)cc1NC(=O)Nc1c(C)c(-c2ccc(=O)n(C)c2)nn1-c1ccccc1 [Example 13, 1-(4,5-dichloro-2-(3-methoxypropyl)phenyl)-3-(4-methyl-3-(1-methyl-6-oxo-1,6-dihydropyridin-3-yl)-1-phenyl-1H-pyrazol-5-yl)urea] | < 100 nM
COCCCc1cc(Cl)c(Cl)cc1NC(=O)Nc1c(C)c(C(=O)NC2CCOCC2)nn1-c1ccccc1 [Example 36, 5-(3-(4,5-dichloro-2-(3-methoxypropyl)phenyl)ureido)-4-methyl-1-phenyl-N-(tetrahydro-2H-pyran-4-yl)-1H-pyrazole-3-carboxamide] | < 100 nM
COCCCc1cc(Cl)c(Cl)cc1NC(=O)Nc1c(C)c(OCCN2CCN(C)CC2)nn1-c1ccccc1 [Example 28, 1-(4,5-dichloro-2-(3-methoxypropyl)phenyl)-3-(4-methyl-3-(2-(4-methylpiperazin-1-yl)ethoxy)-1-phenyl-1H-pyrazol-5-yl)urea] | < 100 nM
CNC(=O)c1nn(-c2ccccc2)c(NC(=O)Nc2cc(C(F)(F)F)ccc2CCCOC)c1C [Example 26, 5-(3-(2-(3-methoxypropyl)-5-(trifluoromethyl)phenyl)ureido)-N,4-dimethyl-1-phenyl-1H-pyrazole-3-carboxamide] | < 100 nM
COCCCc1cc(Cl)c(Cl)cc1NC(=O)Nc1c(C)c(OC[C@H]2CCCNC2)nn1-c1ccccc1 [Example 46, (S)-1-(4,5-dichloro-2-(3-methoxypropyl)phenyl)-3-(4-methyl-1-phenyl-3-(piperidin-3-ylmethoxy)-1H-pyrazol-5-yl)urea hydrochloride] | < 100 nM
COCCCc1cc(Cl)c(Cl)cc1NC(=O)Nc1c(C)c(OCC2CCN(C)CC2)nn1-c1ccccc1 [Example 24] | < 100 nM
COCCCc1cc(Cl)c(Cl)cc1NC(=O)Nc1c(C)c(OCCC2CCNCC2)nn1-c1ccccc1 [Example 40, 1-(4,5-dichloro-2-(3-methoxypropyl)phenyl)-3-(4-methyl-1-phenyl-3-(2-(piperidin-4-yl)ethoxy)-1H-pyrazol-5-yl)urea hydrochloride] | < 100 nM
COCCCc1cc(Cl)c(Cl)cc1NC(=O)Nc1c(C)c(OCCN2CCNCC2)nn1-c1ccccc1 [Example 39, 1-(4,5-dichloro-2-(3-methoxypropyl)phenyl)-3-(4-methyl-1-phenyl-3-(2-(piperazin-1-yl)ethoxy)-1H-pyrazol-5-yl)urea dihydrochloride] | < 100 nM
COCCCc1cc(Cl)c(Cl)cc1NC(=O)Nc1c(C)c(OCC2CCNCC2)nn1-c1ccccc1 [Example 41, 1-(4,5-dichloro-2-(3-methoxypropyl)phenyl)-3-(4-methyl-1-phenyl-3-(piperidin-4-ylmethoxy)-1H-pyrazol-5-yl)urea hydrochloride] | < 100 nM
COCCCc1cc(Cl)c(Cl)cc1NC(=O)Nc1c(C)c(C2CCN(C)CC2)nn1-c1ccccc1 [Example 18, 1-(4,5-dichloro-2-(3-methoxypropyl)phenyl)-3-(4-methyl-3-(1-methylpiperidin-4-yl)-1-phenyl-1H-pyrazol-5-yl)urea] | < 100 nM
COCCCc1cc(Cl)c(Cl)cc1NC(=O)Nc1c(C)c(C2(C#N)CCOCC2)nn1-c1ccccc1 [Example 14, 1-(3-(4-cyanotetrahydro-2H-pyran-4-yl)-4-methyl-1-phenyl-1H-pyrazol-5-yl)-3-(4,5-dichloro-2-(3-methoxypropyl)phenyl)urea] | < 100 nM
COCCCc1cc(Cl)c(Cl)cc1NC(=O)Nc1c(C)c(OCCC2CCN(C)CC2)nn1-c1ccccc1 [Example 29, 1-(4,5-dichloro-2-(3-methoxypropyl)phenyl)-3-(4-methyl-3-(2-(1-methylpiperidin-4-yl)ethoxy)-1-phenyl-1H-pyrazol-5-yl)urea] | < 100 nM
COCCCc1cc(Cl)c(Cl)cc1NC(=O)Nc1c(C)c(OC[C@H]2CNCCO2)nn1-c1ccccc1 [Example 44, (R)-1-(4,5-dichloro-2-(3-methoxypropyl)phenyl)-3-(4-methyl-3-(morpholin-2-ylmethoxy)-1-phenyl-1H-pyrazol-5-yl)urea hydrochloride] | < 100 nM
COCCCc1cc(Cl)c(Cl)cc1NC(=O)Nc1c(C)c(OC2CCNCC2)nn1-c1ccccc1 [Example 42, 1-(4,5-dichloro-2-(3-methoxypropyl)phenyl)-3-(4-methyl-1-phenyl-3-(piperidin-4-yloxy)-1H-pyrazol-5-yl)urea hydrochloride] | < 100 nM
COCCCc1cc(Cl)c(Cl)cc1NC(=O)Nc1c(C)c(OC[C@H]2CCCN(C)C2)nn1-c1ccccc1 [Example 34, (S)-1-(4,5-dichloro-2-(3-methoxypropyl)phenyl)-3-(4-methyl-3-((1-methylpiperidin-3-yl)methoxy)-1-phenyl-1H-pyrazol-5-yl)urea] | < 100 nM
COCCOc1cc(Cl)c(Cl)cc1NC(=O)Nc1c(C)c(-c2ccc(=O)n(C)c2)nn1-c1ccccc1 [Example 8, 1-(4,5-dichloro-2-(2-methoxyethoxy)phenyl)-3-(4-methyl-3-(1-methyl-6-oxo-1,6-dihydropyridin-3-yl)-1-phenyl-1H-pyrazol-5-yl)urea] | < 100 nM

Reference: patent US9790210B2, “N-(monocyclic aryl),N'-pyrazolyl-urea, thiourea, guanidine and cyanoguanidine compounds as TrkA kinase inhibitors” (Array BioPharma Inc., priority 2012, dated 2017)
